Source: ChEMBL document CHEMBL3244202, “Synthesis and analgesic-antiinflammatory activity of some 4- and 5-substituted heteroarylsalicylic acids” (J Med Chem, 1978)
Values after ≈ are worked out from the molar mass of the structure shown.

Legend:
Rattus norvegicus [1] = test: Antiinflammatory activity in po dosed rat assessed as inhibition of carrageenan-induced paw edema; assay type: functional
Rattus norvegicus [2] = test: Analgesic activity in po dosed rat by hyperesthesia test; assay type: functional
[3] = Aqueous solubility of the compound in phosphate buffer at pH 7; assay type: physicochemical
Homo sapiens = species: Homo sapiens; test: Inhibition of prostaglandin synthetase (unknown origin)
Rattus norvegicus [4] = test: Antiinflammatory activity in po dosed rat assessed as reduction in adjuvant arthritis-induced lesion administered on days 17 to 20 post adjuvant arthritis-challenge measured on day 20; assay type: functional; conditions: 480 h
Rattus norvegicus [5] = test: Antiinflammatory activity in po dosed rat assessed as reduction in adjuvant arthritis-induced lesion administered for 1 to 14 days measured on day 14; assay type: functional
Rattus norvegicus [6] = test: Gastrointestinal toxicity in rat assessed as gastric hemorrhage administered on days 17 to 20 measured on day 20; assay type: organism-based, Stomach; conditions: in vivo
Rattus norvegicus [7] = test: Antipyretic activity in po dosed rat administered on days 17 to 20 measured on day 20; conditions: 480 h
Canis familiaris = test: Antiinflammatory activity in po dosed dog assessed as reduction in urate synovitis measured after 2 hrs; assay type: functional; conditions: Canis lupus familiaris
Rattus norvegicus [8] = test: Antiinflammatory activity in po dosed Wistar rat assessed as reduction in adjuvant arthritis-induced lesion administered on days -1 through 1 measured on days 0 and 14
Rattus norvegicus [9] = test: Antipyretic activity in po dosed rat assessed as dose required to produce drop in body temperature of 1 degC administered on days 17 to 20 measured on day 20; assay type: functional; conditions: 480 h

Compound	ED50 (Rattus norvegicus [1]) [mg/kg]	further results
O=C(O)c1cc(-c2ncc[nH]2)ccc1O	200	–
O=C(O)c1cc(-c2cscn2)ccc1O	95	ED50 (Rattus norvegicus [2]): 90 mg/kg; solubility [3]: 2700 µg/mL (≈ 12.2 mM)
O=C(O)c1ccc(-n2cccc2)cc1O	200	–
O=C(O)c1ccccc1O [SALICYLIC ACID]	200	ED50 (Rattus norvegicus [2]): > 150 mg/kg
O=C(O)c1ccc(-c2cscn2)cc1O	70	ED50 (Rattus norvegicus [2]): > 80 mg/kg; solubility [3]: 8700 µg/mL (≈ 39.3 mM)
O=C(O)c1cc(C2N=NN=N2)ccc1O	110	solubility [3]: 1700 µg/mL (≈ 8.25 mM)
O=C(O)c1cc(-c2cncs2)ccc1O	> 200	–
O=C(O)c1ccc(-c2nccs2)cc1O	110	–
O=C(O)c1cc(-c2ncco2)ccc1O	100	solubility [3]: 6000 µg/mL (≈ 29.2 mM)
O=C(O)c1cc(-c2cocn2)ccc1O	110	–
O=C(O)c1cc(-n2cccn2)ccc1O	200	–
O=C(O)c1cc(-n2cnnc2)ccc1O	> 250	–
O=C(O)c1cc(-c2ccns2)ccc1O	80	ED50 (Rattus norvegicus [2]): > 80 mg/kg; solubility [3]: 7300 µg/mL (≈ 33 mM)
O=C(O)c1cc(-n2cncn2)ccc1O	200	–
O=C(O)c1ccc(-c2ncco2)cc1O	> 250	–
O=C(O)c1cc(-c2ccno2)ccc1O	110	–
O=C(O)c1cc(-c2ncccn2)ccc1O	100	solubility [3]: 6000 µg/mL (≈ 27.8 mM)

Compound	ED50 (Rattus norvegicus [1]) [mg/kg]	further results
O=C(O)c1cc(-c2ccncn2)ccc1O	> 200	–
O=C(O)c1cc(-c2ccccn2)ccc1O	200	–
O=C(O)c1cc(-n2ccnn2)ccc1O	150	–
O=C(O)c1cc(-n2ccnc2)ccc1O	75	ED50 (Rattus norvegicus [2]): 65 mg/kg; solubility [3]: 2000 µg/mL (≈ 9.8 mM)
O=C(O)c1cc(-c2c[nH]cn2)ccc1O	100	solubility [3]: 1100 µg/mL (≈ 5.39 mM)
O=C(O)c1cc(-n2nccn2)ccc1O	150	–
O=C(O)c1cc(-c2ccc(F)cc2F)ccc1O [DIFLUNISAL]	9.8	ED50 (Rattus norvegicus [2]): 4.6 mg/kg
CC(=O)Oc1ccc(-n2cccc2)cc1C(=O)O	42	ED50 (Rattus norvegicus [2]): 35 mg/kg
O=C(O)c1cc(-c2csnn2)ccc1O	> 200	–
O=C(O)c1cc(-c2cccnc2)ccc1O	> 250	–
CC(=O)Oc1ccccc1C(=O)O [ASPIRIN]	90	ED50 (Rattus norvegicus [2]): 90 mg/kg; ID50 (Homo sapiens): 5 µg/mL (≈ 0.0278 mM); ED50 (Rattus norvegicus [4]): 25 mg/kg; ED50 (Rattus norvegicus [5]): 33 mg/kg; ED50 (Rattus norvegicus [6]): 16 mg/kg; ED50 (Rattus norvegicus [7]): 43 mg/kg; ED50 (Canis familiaris): 68 mg/kg; ED50 (Rattus norvegicus [8]): 46 mg/kg
CCCCOC(=O)Oc1ccc(-n2cccc2)cc1C(=O)O	52	ED50 (Rattus norvegicus [2]): 38 mg/kg
O=C(O)c1cc(-n2cccc2)ccc1O	50	ED50 (Rattus norvegicus [2]): 30 mg/kg; solubility [3]: 8600 µg/mL (≈ 42.3 mM); ID50 (Homo sapiens): 0.3 µg/mL (≈ 0.00148 mM); ED50 (Rattus norvegicus [4]): 35 mg/kg; ED50 (Rattus norvegicus [5]): 64 mg/kg; ED50 (Rattus norvegicus [6]): > 800 mg/kg; ED10 (Rattus norvegicus [9]): 401 mg/kg; ED50 (Canis familiaris): 39 mg/kg; ED50 (Rattus norvegicus [8]): 58 mg/kg
O=C(O)c1cc(-c2cc[nH]n2)ccc1O	> 250	–
O=C(O)c1cc(-c2cccs2)ccc1O	60	solubility [3]: 7000 µg/mL (≈ 31.8 mM)
O=C(O)c1cc(-c2cnco2)ccc1O	> 200	–
O=C(O)c1cc(-c2nccs2)ccc1O	> 250	–
